From US20050282863A1, “Novel-N substituted dihydrobenzothiepino, dihydrobenzoxepino and tetrahydro benzocyclohepta indoles as selective estrogen receptor modulators” (Council of Scientific & Industrial Research, priority 2004, published 2005)

Key:
[1] = system: immature ovariectomized rats; assay: Estrogen agonistic activity: increase in uterine weight in immature ovariectomized rats; type: in vivo, rat; conditions: 3 days, percent of ovariectomized + vehicle group; for change in vivo at 3 mg/kg: daily dose 3 mg/kg
[2] = system: immature ovariectomized rats; assay: Estrogen antagonistic activity: inhibition in 17α-ethynylestradiol induced uterine weight gain in immature ovariectomized rats; type: in vivo, rat; conditions: Rattus norvegicus, 72 h, 3 days, read-out: Percent inhibition in 17α-ethynylestradiol induced uterine weight gain; for inhibition in vivo at 10 mg/kg/day: daily dose 10 mg/kg with 0.02 mg/kg 17-alfa-ethynylestradiol

Row | Structure (SMILES) | change in vivo at 3 mg/kg ([1]; Rattus norvegicus, 72 h) | change in vivo at 10 mg/kg ([1]; Rattus norvegicus, 72 h, daily dose 10 mg/kg) | inhibition in vivo at 10 mg/kg/day [2] | change in vivo at 1 mg/kg ([1]; Rattus norvegicus, 72 h, daily dose 1 mg/kg) | Percent increase in uterine weight ([1]; daily dose 10 mg/kg) | inhibition in vivo at 1 mg/kg/day ([2]; daily dose 1 mg/kg with 0.02 mg/kg 17-alfa-ethynylestradiol)
1 | c1ccc2c(c1)SCCc1c-2n(CCCCCCN2CCCCC2)c2ccccc12 [Example number 18, 12-[6-(Piperidine-1-yl)hexyl]-6,7-dihydro-12H-benzothiepino [5,4-b]indole] | 1.76% | 51% | 19% | – | – | –
2 | CCCCN(C)CCCCCn1c2c(c3ccccc31)CCSc1ccccc1-2 [Example number 13, 12-[5-(N-butylmethylamino)pentyl]-6,7-dihydro-12H-benzothiepino [5,4-b]indole] | 2.53% | – | 37% | 8% | 126.00% | 12%
